These results are taken from patent US12295964B2, “Treating pain associated with chemotherapy-induced peripheral neuropathy” (MEDICON PHARMACEUTICALS, INC., priority 2021, dated 2025).

Where “and” joins values, the source holds several entries; their conditions need not be identical. Identical values can stand only once. Like-named read-outs stand apart in the source and are kept apart here.

Data set [1] in a line: PS and metabolites in proximal and distal half of the sciatic nerve of mice with paclitaxel-induced PN. The following applies: for concentration at 30 min: mean ± SEM. Format: in vivo, mouse. The protocol:
In a separate experiment we studied 8 mice with paclitaxel-induced PN treated with PS 8% ointment 3×/d for 2 wks. Mice were euthanized as above 30 minutes after the last dose of PS. From these mice we harvested both sciatic nerves dividing each into proximal and distal halves, and combined the corresponding halves of every two animals for assay of drug levels.

Data set [2] in a line: Pharmacokinetics and biodistribution of topical PS in normal mice. It is filed as in vivo, mouse. The following applies: for Cmax: read-out: Cmax, μM mean ± SEM. The protocol:
PS 8% ointment was applied topically to each hind paw (50 μl per paw) with gentle rubbing. At 0.5, 1, 3, 5, 12, 18, and 24 h, mice (n=4-5 mice/time point) were euthanized with CO2 inhalation. Blood was drawn immediately after death. Tissues, including paw skin, paw muscle, leg muscle, the sciatic nerve and lumbar DRG bilaterally were dissected quickly, immediately frozen in liquid nitrogen and stored at −80° C. until analyzed.

The test system of data set [3] is oxaliplatin-induced CIPN in C57BL/6J mice. Description: Treatment of oxaliplatin-induced CIPN, mechanical allodynia (von Frey test). Format: in vivo, mouse. An excerpt: (§1) Food and water were available ad libitum.
(§2) Results are expressed as mean±SEM. […] Non-compartmental analyses were employed.

For data set [4], the system named is paclitaxel-induced CIPN in C57BL/6J mice. Put plainly: Prevention of paclitaxel-induced CIPN pain, mechanical allodynia (von Frey test). The following applies: for mechanical allodynia score, mean±SEM: day 10, PS 8% ointment to hind paws started 2 days before first paclitaxel (8 mg/kg ip every other day x4).
Description: In the prevention study depicted in FIG. 8, three of the four study groups of mice were treated with paclitaxel (one injection every other day for a total of four) while the fourth group received the solvent alone, serving as control.
The subject of data set [5] is paclitaxel-induced CIPN in mice. Description: Cold allodynia (acetone test) in paclitaxel-induced CIPN. It is filed as in vivo, mouse. Here is the method: For cold allodynia, mice with paclitaxel-induced CIPN were treated with PS 5% or vehicle for 15 days after the induction of CIPN. The acetone test was used. Briefly, acetone was applied onto the plantar surface of each hind paw. The time each mouse spent licking, lifting, and/or shaking the hind paw recorded over 60 seconds was the score for cold allodynia. Measurements were performed on day-8 (before the first paclitaxel injection), the day of starting treatment (day 0) and then on day 15.

The subject of data set [6] is paclitaxel-induced CIPN in C57BL/6J mice. Description: Treatment of paclitaxel-induced CIPN, mechanical allodynia (von Frey test).
Description: Adult male C57BL/6J mice, 8 weeks of age at the beginning of the experiments and weighing 20-30 g, were purchased from The Jackson Laboratory (Bar Harbor, ME). Mice were housed in an AAALAC-accredited facility in groups of four. Food and water were available ad libitum. The mice in each cage were randomly allocated to treatment groups. All studies were conducted by experimenters blinded to the identity of the treatment groups. Experiments were performed during the light cycle (7:00 am to 7:00 pm) and animals were euthanized with CO2 asphyxiation. Studies were approved by the relevant Institutional Animal Care and Use Committee and followed the National Institutes of Health Guidelines for the Care and Use of Laboratory Animals. Animal studies are reported in compliance with the ARRIVE guidelines.
CIPN was induced in mice with three different chemotherapeutic compounds using established protocols (Carozzi et al., Exp Neurol (2010); 226:301-309; Currie et al., PLOS Biol (2019); 17:e3000243; Eldridge et al., Toxicol Pathol (2020); 48:190-201). Each of the three chemotherapeutic compounds were prepared and dosed as follows. • Paclitaxel: paclitaxel (purchased from MilliporeSigma (St. Louis, MO)) was dissolved in a mixture of 1 volume ethanol/1 volume Cremophor EL (EMD Millipore Corp, Burlington, MA)/18 volumes distilled water. Paclitaxel was administered as four intraperitoneal injections of 8 mg/kg paclitaxel (in a volume of 1 ml/100 g body weight) every other day, resulting in a cumulative dose of 32 mg/kg. • Oxaliplatin: Oxaliplatin was dissolved in ddH2O.
Mechanical allodynia was measured at the time points recorded in the figures.
Mechanical allodynia thresholds were determined using von Frey filaments according to an established method (Chaplan et al., J Neurosci Methods (1994); 53:55-63; Bagdas et al., Biochem Pharmacol (2015); 97:590-600). Briefly, mice were placed in a quiet room for 30 min and then were put in a Plexiglas cage with mesh metal flooring and allowed to acclimatise for 30 min before testing. A series of calibrated von Frey filaments (Stoelting, Wood Dale, IL) with incremental stiffness were applied perpendicularly to the paw with sufficient force to cause slight bending and held 2-3 s. This process was repeated at each level of stiffness 5 times, a few seconds apart. Paw withdrawn, licking or shaking were considered positive responses. The mechanical threshold, expressed as g, indicates the force of the von Frey filament to which the animal reacted.
Results are expressed as mean±SEM. […] Analysis of variance (ANOVA) tests were conducted and followed by the Bonferroni post hoc test. Differences were determined to be significant at P<0.05.
Data set [7] concerns paclitaxel-induced CIPN in C57/BL mice. Description: Prevention of neuropathic pain in paclitaxel mouse model of CIPN, paw withdrawal threshold (von Frey). Format: in vivo. The following applies: day 6 after first paclitaxel (10 mg/kg ip daily x5); PS 8% hydrogel topically to both hind paws 3 times a day for 7 days, started 2 days before paclitaxel. Here is the method: In order to establish CIPN, paclitaxel is administered at 10 mg/kg intraperitoneally into C57/BL mice. […] This dosing regimen of paclitaxel produces pain associated with CIPN with time courses that are similar to those of pain after paclitaxel administration in cancer patients.
The first doses were administered 2 days prior to the first administration of paclitaxel.
In particular, a simplified up-down method for estimating paw withdrawal threshold (PWT) using von Frey filaments was used (as described in Bonin et al., Molecular Pain (2014); 10(26):1-10)). The results of the PWT test are expressed as force applied (gm).

Data set [8] has as its system paclitaxel-induced CIPN in C57/BL/6J mice. Description: Comparison with sulindac, lidocaine and pregabalin in paclitaxel CIPN, mechanical allodynia (PWT, von Frey).
Description: CIPN was established by administration of paclitaxel into C57/BL/6J mice. The paclitaxel was administered into all study groups below: • 1. Group 1: paclitaxel plus vehicle (n=8) • 2. […] Group 4: paclitaxel plus 0.7% sulindac (n=8) • 5. Group 5: paclitaxel plus 5% lidocaine cream (n=8) • 6.
Regarding the treatment with lidocaine: 5% lidocaine cream (a positive control) was applied once to both hind paws of the mice 30 minutes before measurement of PWT.
To determine the outcome of treatment, assessment of mechanical allodynia was performed. […] Mechanical and cold allodynia are determined at least one day apart in the same animal.
Briefly, for mechanical allodynia, pain threshold responses were measured using the well-established method of von Frey filaments in line with that performed in the earlier Examples. The PWT test was performed on day-8 (before the first dose of paclitaxel), the day of starting treatment (day 0, at which CIPN was fully established) and day 14 (treatment continued until day 15). The mechanical threshold, expressed as g, indicates the force of the von Frey filament to which the animal reacted.
Data set [9] concerns vincristine-induced CIPN in C57BL/6J mice. Description: Treatment of vincristine-induced CIPN, mechanical allodynia (von Frey test). It is filed as in vivo, mouse.
Text: as §1, §2

For a further data set, the target named is COX-1 (Homo sapiens, UniProt P23219). The conditions noted are these: cited from earlier work.
The target in another data set is T1, COX-2 (Homo sapiens, UniProt P35354).
T1 sequence (P35354 18-604): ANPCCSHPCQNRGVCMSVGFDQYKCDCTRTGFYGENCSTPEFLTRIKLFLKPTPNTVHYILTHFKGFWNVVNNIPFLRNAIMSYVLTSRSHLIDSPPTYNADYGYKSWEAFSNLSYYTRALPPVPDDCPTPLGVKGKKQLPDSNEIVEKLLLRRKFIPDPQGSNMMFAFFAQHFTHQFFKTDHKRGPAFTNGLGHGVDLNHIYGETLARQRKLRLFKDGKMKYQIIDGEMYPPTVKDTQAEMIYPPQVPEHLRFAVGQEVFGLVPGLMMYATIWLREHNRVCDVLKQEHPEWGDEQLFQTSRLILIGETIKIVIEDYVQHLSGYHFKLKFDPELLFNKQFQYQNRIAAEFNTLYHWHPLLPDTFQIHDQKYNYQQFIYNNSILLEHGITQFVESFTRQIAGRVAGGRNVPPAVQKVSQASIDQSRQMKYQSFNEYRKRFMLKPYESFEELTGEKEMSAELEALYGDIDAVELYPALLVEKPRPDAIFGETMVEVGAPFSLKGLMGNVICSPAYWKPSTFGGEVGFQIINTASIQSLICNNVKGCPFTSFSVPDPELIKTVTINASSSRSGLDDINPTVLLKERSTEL
The conditions noted are these: cited from earlier work.

In another data set the test system is mice. Put plainly: Safety of PS ointment during the CIPN treatment studies. It is filed as in vivo, mouse. The conditions noted are these: PS ointment thrice daily to hind paws for up to 22 days. The text has this:
This finding is in keeping with the known safety profile of PS.

The test system of data set [10] is paclitaxel-induced CIPN in C57/BL mice. Description: Treatment of established neuropathic pain in paclitaxel mouse model of CIPN, PWT (von Frey). Format: in vivo. The conditions noted are these: day 10, about 30 min after last application; paclitaxel 10 mg/kg ip daily x3; PS 8% hydrogel to both hind paws 3 times a day for 10 days, started 2 days after last paclitaxel. Here is the method: The first doses were administered 2 days after the last administration of paclitaxel.
The data is expressed as percent change from the respective baseline value.

The test system of another data set is CIPN model. The conditions noted are these: Hidaka et al. (2009); cited from earlier work.
The mark [11] stands for this setting: 30 min after last dose, PS 8% ointment 3x/d for 2 wks.
The mark [12] stands for this setting: mouse, in vivo, Distal half of the sciatic nerve.
Where [13] appears, read: mouse, in vivo, Proximal half of the sciatic nerve, μM.
Setting [14] is: 30 min after last dose, mice with paclitaxel-induced PN, PS 8% ointment 3x/d for 2 wks.
[15] abbreviates: DRG (dorsal root ganglia), normal mice, PS 8% ointment topically 50 μl per hind paw.
The mark [16] stands for this setting: SN (sciatic nerve), normal mice, PS 8% ointment topically 50 μl per hind paw.
[17] abbreviates: leg muscle, normal mice, PS 8% ointment topically 50 μl per hind paw.
The mark [18] stands for this setting: paw muscle, normal mice, PS 8% ointment topically 50 μl per hind paw.
[19] abbreviates: paw skin, normal mice, PS 8% ointment topically 50 μl per hind paw.

Sequence of COX-1 (P23219 24-599): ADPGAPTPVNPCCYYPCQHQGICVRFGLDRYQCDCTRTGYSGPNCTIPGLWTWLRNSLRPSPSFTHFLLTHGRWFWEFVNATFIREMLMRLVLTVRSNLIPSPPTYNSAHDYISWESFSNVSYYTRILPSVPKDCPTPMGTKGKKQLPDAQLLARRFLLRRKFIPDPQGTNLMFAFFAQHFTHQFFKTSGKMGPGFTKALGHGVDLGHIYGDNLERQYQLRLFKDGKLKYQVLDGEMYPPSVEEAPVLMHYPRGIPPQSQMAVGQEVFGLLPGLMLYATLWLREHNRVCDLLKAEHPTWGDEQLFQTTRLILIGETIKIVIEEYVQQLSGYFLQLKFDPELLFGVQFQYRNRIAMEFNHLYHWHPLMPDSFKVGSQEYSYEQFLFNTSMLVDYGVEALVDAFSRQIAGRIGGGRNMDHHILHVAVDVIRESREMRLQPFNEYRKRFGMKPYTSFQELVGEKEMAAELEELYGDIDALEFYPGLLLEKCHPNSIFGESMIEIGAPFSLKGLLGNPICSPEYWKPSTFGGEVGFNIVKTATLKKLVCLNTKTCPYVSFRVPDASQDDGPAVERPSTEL

As to `CC1=C(CC(=O)O)c2cc(F)ccc2/C1=C\c1ccc([S+](C)[O-])cc1` (stereo not drawn) [Sulindac, sulindac, reference compound], in [1] (setting [11]), the “Fold difference (distal vs proximal half of sciatic nerve)” value (“Fold difference” below) was 8.5. Also, the concentration at 30 min in data set [1] (setting [12]) stood at 3.4 ± 1.1 µM; in data set [1] (setting [13]), 0.4 ± 0.03 µM. The “sulindac levels relative to those of PS” value in data set [2] (all tissues except the sciatic nerve (higher) and DRG (equal), topical PS 8% ointment) is recorded as “around 25%”.

As for `CSc1ccc(/C=C2/C(C)=C(CC(=O)O)c3cc(F)ccc32)cc1` [Sulindac sulfide, sulindac sulfide], in data set [1] (mouse, in vivo, 30 min), the “Fold difference” value is given as 4.5-8.5. Further, the results for the concentration at 30 min in data set [1] (setting [12]) and in [1] (setting [13]) were 3.5 ± 1 µM and 0 µM, respectively.

In the case of `O=C1[O][Pt]2([NH][C@@H]3CCCC[C@H]3[NH]2)[O]C1=O` [oxaliplatin], the “reduction of allodynia score by the chemotherapeutic” value in [3] (at day 0, two study groups respectively) is 65% and 56%.

As for `CC(=O)O[C@H]1C(=O)[C@@]2(C)[C@H]([C@H](OC(=O)c3ccccc3)[C@]3(O)C[C@H](OC(=O)[C@H](O)[C@@H](NC(=O)c4ccccc4)c4ccccc4)C(C)=C1C3(C)C)[C@]1(OC(C)=O)CO[C@@H]1C[C@@H]2O` [Paclitaxel, paclitaxel, reference compound], in data set [4] (day 10, paclitaxel group vs control), the “mechanical allodynia score lower than solvent control” value is recorded as 53%. Moreover, the “mechanical allodynia score, mean±SEM” value in data set [4] worked out at 0.7 ± 0.17 g; in data set [8] (day 0, CIPN fully established after paclitaxel (1.83±0.14 g before paclitaxel)) it was 0.55 ± 0.05 g. In addition, the “cold allodynia score (acetone test), Mean±SEM” value in data set [5] (after paclitaxel treatment (4.5±0.24 sec before)) was 7.1 ± 0.4 s. Also, the “reduction of mechanical allodynia scores by the chemotherapeutic” value in [6] (paclitaxel administered over 12 days, vs baseline) is around 85%. For the same compound, in data set [7], the “PWT, gm Mean ± SEM” value came out at 0.3 ± 0.01 gm.

As usually defined, the Tmax is the time from dosing to the highest level. A word on the Cmax: it is the peak of the concentration-time curve. phosphosulindac [PS]: the “topical or systemic side effects” value was “no topical or systemic side effects” in data set [4] (PS ointment, prevention study) and “no topical or systemic side effects” in the data set on mice. The “mechanical allodynia score, mean±SEM” value came to 1.2 ± 0.15 g in data set [4]; 1.5 ± 0.09 g in data set [9] (day 16, PS 8% ointment to hind paws 3x/day (vincristine alone group: no topical treatment)); 1.8 ± 0.09 g in data set [3] (after PS 8% ointment 3x/day (day 22) vs day -15 baseline); 0.79 ± 0.08 g in [6] (day 0 (initiation of topical treatment, CIPN established)); 1.17 ± 0.07 g in [6] (day 5, PS 8% ointment to hind paws 3x/day); 2.49 ± 0.18 g in data set [6] (day 16, PS 8% ointment to hind paws 3x/day (paclitaxel only group: no topical treatment)). The “cold allodynia score (acetone test), Mean±SEM” value in [5] (PS 5% for 15 days after induction of CIPN, day 15, vehicle 9.3±0.7) stood at 3.1 ± 0.4 s. Besides, the “increase of allodynia score compared to day 0” value in data set [9] (PS treatment for 16 days) amounted to 114%. In addition, the “inhibition of COX-1 expression” value at COX-1 is “does not inhibit”. On COX-2, the “inhibition of COX-2 expression” value was “does not inhibit”. Besides, the “PWT, gm Mean ± SEM” value in data set [7] came to 0.4 ± 0.01 gm. Moreover, the “PWT, % baseline Mean ± SEM” value in data set [10] turned out to be 102.55 ± 4.92 % baseline. Besides, the “Fold difference” value in [1] (setting [11]) is 18.5 and 18.9. In addition, the “Distal half of the sciatic nerve, mean ± SEM” value in data set [1] (setting [14]) is 17 ± 5.1 µM. Further, the “Proximal half of the sciatic nerve, μM, mean ± SEM” value in data set [1] (setting [14]) worked out at 0.9 ± 0.3 µM. The “PWT, g Mean ± SEM” value in [8] (PS 1.2% to both hind paws 3 times a day from day 0, measured day 14) is 0.98 ± 0.06 g; in [8] (PS hydrogel 5% to both hind paws 3 times a day from day 0, measured day 14) it was 1.24 ± 0.07 g. For the same compound, the “AUC0-24 h” value in data set [2] (setting [15]) turned out to be 4.5 µM·h; in data set [2] (setting [16]), 12.0 µM·h; in data set [2] (setting [17]), 171.6 µM·h; in [2] (setting [18]) it was 411.2 µM·h. The “Tmax” value in data set [2] (setting [15]) came out at 18 h; in data set [2] (setting [16]), 0.5 h; in [2] (setting [17]) it was 0.5 h; in data set [2] (setting [18]), 0.5 h; in data set [2] (setting [19]) it was 0.5 h. In addition, the Cmax is 0.3 ± 0.1 µM in data set [2] (setting [15]); 0.9 ± 0.1 µM in [2] (setting [16]); 35 ± 3.6 µM in [2] (setting [17]); 102 ± 4.6 µM in data set [2] (setting [18]); 195 ± 5.3 µM in [2] (setting [19]). The “T1/2, h” value in data set [2] (setting [16]) turned out to be 57.4 h; in data set [2] (setting [17]), 20.6 h; in data set [2] (setting [18]) it was 11.4 h; in data set [2] (setting [19]), 16.1 h. Besides, the “presence in the systemic circulation” value in [2] (blood after topical PS 8% ointment, limit of quantitation 0.1 μM for PS) is given as “no PS was detected”. Besides, in data set [2] (setting [19]), the “AUC0-24 h, μM · h” value is 1,609.8 μM · h. Besides, the “t1/2 of the skin and the muscles” value in data set [2] (range over paw skin, paw muscle, leg muscle, topical PS 8% ointment) lay within 11.4 to 20.6 h.

In the case of `CC(C(=O)O)c1ccc(CC2CCCC2=O)cc1` (stereo not drawn) [loxoprofen sodium], in the data set on CIPN model, the “reducing pain signalling in CIPN model” value was “ineffective”.

For the compound `CCN(CC)CC(=O)Nc1c(C)cccc1C` [lidocaine, reference compound], in [8] (5% lidocaine cream applied once to both hind paws 30 minutes before measurement), the “PWT, g Mean ± SEM” value turned out to be 1.48 ± 0.12 g.

As to `CC[C@]1(O)C[C@H]2CN(CCc3c([nH]c4ccccc34)[C@@](C(=O)OC)(c3cc4c(cc3OC)N(C=O)[C@H]3[C@@](O)(C(=O)OC)[C@H](OC(C)=O)[C@]5(CC)C=CCN6CC[C@]43[C@@H]65)C2)C1` [vincristine, reference compound], in data set [9] (day 0, after vincristine, all three groups), the “mechanical allodynia score, mean±SEM” value is 0.7 ± 0.07 g. In addition, the “reduction of mechanical allodynia score by the chemotherapeutic” value in data set [9] (day -7 vs day 0, three vincristine groups) is 61%-65%.

Turning to `CC1=C(CC(=O)O)c2cc(F)ccc2/C1=C\c1ccc(S(C)(=O)=O)cc1` [Sulindac sulfone, sulindac sulfone], in [1] (mouse, in vivo), the “Distal half of the sciatic nerve, mean ± SEM” value worked out at 0.9 ± 0.2 µM and the “Proximal half of the sciatic nerve, μM, mean ± SEM” value was found to be 0.2 ± 0.08 µM.
